Measured values reported in PMC7287880, “Structural Basis for Broad Substrate Selectivity of Alcohol Dehydrogenase YjgB from Escherichia coli” (Molecules, 2020).

Molecular target: T1, EcYjgB (YjgB) (Escherichia coli, UniProt P27250)
T1 construct: gene ahr; full-length, C-terminal 6xHis tag (pET30a), recombinant in E. coli BL21(DE3), purified by Ni-NTA and size exclusion; Zn-containing dimer
T1 sequence (P27250 1-339): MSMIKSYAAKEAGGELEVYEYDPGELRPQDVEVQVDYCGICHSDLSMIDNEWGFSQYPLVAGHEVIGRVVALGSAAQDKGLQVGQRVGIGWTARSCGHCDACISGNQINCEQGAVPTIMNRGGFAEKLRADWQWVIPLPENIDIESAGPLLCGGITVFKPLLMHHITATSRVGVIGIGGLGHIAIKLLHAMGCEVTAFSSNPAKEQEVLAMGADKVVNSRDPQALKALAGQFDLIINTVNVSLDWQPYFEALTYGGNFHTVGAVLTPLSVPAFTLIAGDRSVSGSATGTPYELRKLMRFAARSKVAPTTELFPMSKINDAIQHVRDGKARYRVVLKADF
Experiment: X-ray crystal structure of soaked crystal, […] A
Type: binding
Settings: apo crystals soaked with 5 mM NADP for 30 min at 7 C; Zn-bound; PEG fragment in substrate pocket; Rossmann-fold cofactor site

Compound: NC(=O)c1ccc[n+]([C@@H]2O[C@H](COP(=O)(O)OP(=O)(O)OC[C@H]3O[C@@H](n4cnc5c(N)ncnc54)[C@H](OP(=O)(O)O)[C@@H]3O)[C@@H](O)[C@H]2O)c1 [NADP]
- X-ray crystal structure of soaked crystal, 2.00 A: The electron density of NADP is clearly shown in the NADP(H) binding site
